Marks after values point to notes of the source that are not given here.
Legend:
Type in all cases: in vivo, rat
[1] = tested on: male Wistar rats; experiment: Metabolic syndrome model in rats (cafeteria diet)
From the text: Metabolic syndrome was simulated in male Wistar rats (260-280 g) by keeping animals on a high-fat diet (“cafeteria diet”) for 12 weeks. The “cafeteria diet” was balanced according to Current Protocols in Pharmacology [Current Protocols in Pharmacology (2005) Animal Models of Disease//Contributed by Petter Hedlund, Kenshi Matsumoto, and Karl-Erik Andersson]. The diet contained 25-35% of fats and 25-30% of digestible carbohydrates in addition to the standard diet of rodents. Treamid was administered at a dose of 0.5 mg/kg intragastrically once daily, every day from Week 7 to Week 11 of the diet. Reference drug Metformin was administered at a dose of 200 mg/kg intragastrically according to the same regimen.
The development of pathology and a therapeutic effect of Treamid were estimated by the following parameters: blood biochemical parameters (glucose, cholesterol, triglycerides (TG), HDL, LDL, atherogenicity index), glucose tolerance test, visceral fat weight, total number and percentage of motile sperm forms.
Glucose was determined with an OneNouch Select glucometer (Switzerland).
The levels of triglycerides, TCh and HDL were determined by using a diagnostic kit (Olvex Diagnosticum, Russia).
The level of LDL was determined by the formula 2. LDL=TCh−(HDL+TG/2.2) (1),
The atherogenicity index (AI) was calculated by the formula 3. AI=(TCh−HDL)/HDL (2),
The atherogenicity index was calculated for each animal individually, and then the arithmetic mean value of the group was calculated.
For the analysis of sperm, the animals were anesthetized with intraperitoneal injection of a mixture of Zolletil and Xyla (0.2 ml of Zoletil+0.8 ml Xyla) in a volume of 70 μl/100 g of weight. Epididymis was isolated. The epididymis head was cut off from the tail, weighed, 5 incisions were made (to improve the sperm yield), and placed in a tube containing 10 ml of phosphate buffered saline heated to 37° C. The tube was held at 37° C. for 10 minutes. Then, the tube was shaken on a shaker, 20 μl of the liquid was taken, applied to a glass slide heated to 37° C., and the number of motile sperm cells was assessed under a microscope. The calculation was performed up to 100 sperm cells.
The total number of sperm cells in a test tube with epididymis was calculated as follows: 20 μl of the liquid was taken after shaking and added to a tube containing 400 μl of physiological saline. After shaking the tubes, their contents (20 μl) were taken out and introduced into Goryaev chamber. The number of sperm cells was counted in 100 large squares. The number of sperm cells in the head of epididymis was calculated by the formula: Number of sperm cells=number of sperm cells in 100 large squares of Goryaev chamber*0.525(factor from the calculation of the dilution and the volume of Goryaev chamber)/weight of the epididymis head.

[2] = tested on: male rats; conditions: rat, in vivo
Method: The latter was simulated by a single injection of cytostatic drug Paclitaxel (Mitotax, Dr. Reddy's, India) to male rats (3 months of age). The choice of the drug was due to the fact that it is one of the medications that damage the precursors of spermatogenesis—stem cells.
Paclitaxel was administered to the animals of the control and test groups once intravenously at the maximum tolerated dose of 7.6 mg/kg. Treamid was administered to the animals of the experimental groups intragastrically at a dose of 5 mg/kg in the form of a suspension in 2% starch mucus for 15 days a month after the administration of Paclitaxel. The control animals received an equivalent volume of the solvent (2% starch mucus), instead of the test compound.
The colony-stimulating activity of the cells of the microenvironment of spermatogenic tissue (production of humoral regulators of spermatogenesis by Sertoli cells) was determined as follows. The above-described procedure was used to prepare a testis homogenate from which an adherent fraction of cells was isolated. The adherent cells were cultured for 24 hours in complete culture medium at 37° C., 5% CO2 and 100% air humidity. A day later, the supernatant was collected, which was stored at a temperature of […]. The level of humoral factors of spermatogenesis in the supernatant was tested by the test system of CFU-Sp of the testes of intact rats. […]

[3] = tested on: male Wistar rats; experiment: Sexual incentive motivation test, rats of late reproductive age; conditions: 14-month rats
Method: (§1) Erectile dysfunction was simulated by using animals of late and senile reproductive age (14-19 months). Suppression of sexual motivation was simulated by using animals of late reproductive age (14 months).
Experiments on studying the effect of Treamid on sexual motivation were carried out on 40 male Wistar rats (14 months of age). A model for a targeted search for novel agents for the therapy of this pathology was used as an experimental model of sexual incentive motivation in rats [Xi Chu, Ekaterina S. Zhavbert, Julia L. Dugina, Irina A. Kheyfets, Svetlana A. Sergeeva, Oleg I. Epstein, Anders Agmo Sindenafil and a compound stimulating endothelial NO synthase modity sexual incentive motivation and copulatory behavior in male wistar and fisher 344//J Sex Med.—2008.—5.—P. 2085-2009]. This model is based on the fact that rats are social animals and seek not only sexual, but also social contacts. The assessment of sexual motivation involves determining the time spent near a sexual stimulus and the score of preference in animals without direct contact with “social” and “sexual” stimuli. The sexual stimulus was a female rat in estrus stage, and the social stimulus was a male rat.

[4] = tested on: male Wistar rats; experiment: Pair-test of sexual behavior, seasonal suppression of copulatory activity
Method: Seasonal suppression of reproductive activity was simulated by carrying out the experiment in the winter period (end of December). As a background group, intact animals (3 months of age) were tested in June.
The experiments were carried out on 27 male Wistar rats of reproductive age (3 months). Treamid at a dose of 5 mg/kg and reference drug Sildenafil (at a dose of 3 mg/kg) were administered intragastrically […], once daily for 15 days. The sexual activity was estimated by the pair-test of sexual behavior. The test was carried out twice: before administration and one hour after the last administration of Treamid. The rats of the control groups receiving the solvent were tested at the same time as the animals of the experimental groups.
The experiment also comprised the use of female rats in the estrus stage caused by a preliminary 4-fold injection of the Synestrel. The effectiveness of Treamid was estimated by the following indices: latency until the first mating attempt (LFM), the number of mating attempts (MN), and the number of ejaculations (EN). The obtained data were compared with those of the same animals before the administration of the tested compound and with the data of the control group (the second test).

[5] = tested on: Wistar rats; experiment: Pair-test of sexual behavior, rats of late reproductive (14 months) and presenile (19 months) age; conditions: 14-month rats
Method: as §1
Experiments on studying the effect of Treamid on copulatory activity were carried out on 76 Wistar rats (14 months and 19 months of age). Treamid was administered intragastrically for 14 days at a dose of 5 mg/kg. Reference drug Sildenafil (100 mg, PFIZER PGM, France) was also administered intragastrically, which corresponded to clinical use, at a dose of 3 mg/kg twice a week. The sexual activity was estimated by the pair-test of sexual behavior. For this purpose female rats in the estrus stage caused by a preliminary 4-fold injection of the Synestrel were involved in the experiment. The effectiveness of Treamid was estimated by the following indices: latency until the first mating attempt (LFM), the number of mating attempts (MN), and the number of ejaculations (EN). The obtained data were compared with those of the same animals before the administration of Treamid (the first test) and with the data in the control group (the second test).

[6] = Treamid 0.5 mg/kg, Metformin 200 mg/kg intragastrically Week 7-11 of high-fat diet
[7] = high-fat diet for 12 weeks, Treamid 0.5 mg/kg, Metformin 200 mg/kg
[8] = high-fat diet, Treamid 0.5 mg/kg, Metformin 200 mg/kg
[9] = Second test, after administration of the test compound, Treamid 5 mg/kg, Sildenafil 3 mg/kg, 14 days
[10] = first test, before administration
[11] = first test, before administration, winter period
[12] = second test, one hour after last administration, Treamid 5.0 mg/kg, Sildenafil 3 mg/kg intragastrically, 15 days
[13] = First test, before administration of drugs
[14] = Second test, after 14-day administration course, Treamid 5 mg/kg, Sildenafil 3 mg/kg

CN(C)C(=N)N=C(N)N [Metformin, reference compound]
Glucose level in the blood of male rats, mmol/L ([1]; 3 weeks after the drug administration, Treamid 0.5 mg/kg, Metformin 200 mg/kg): 6.9 ± 0.3*& mmol/L | Glucose level in the blood of male rats, mmol/L ([1]; 5 weeks after the drug administration, Treamid 0.5 mg/kg, Metformin 200 mg/kg): 8.0 ± 0.2*& mmol/L | Relative weight of visceral fat, Fat near the intestine [1, 6]: 1.07 ± 0.08 % based on body weight | Relative weight of visceral fat, Fat near the kidneys [1, 6]: 0.52 ± 0.05& % based on body weight | Relative weight of visceral fat, Fat near the testes [1, 6]: 0.98 ± 0.12 % based on body weight | Relative weight of visceral fat, Total fat [1, 6]: 2.57 % based on body weight | Glucose level in the blood of male rats ([1]; before administration of drugs (Week 6 of diet)): 6.2 ± 0.1 mmol/L | Atherogenicity index [1, 7]: 0.6 ± 0.1& | HDL, mM/l [1, 7]: 1.8 ± 0& mM/l | LDL, mM/l [1, 7]: 0.7 ± 0.3& mM/l | Total cholesterol, mM/l [1, 7]: 2.8 ± 0.3 mM/l | Triglycerides, mM/l [1, 7]: 0.7 ± 0.1& mM/l | Percentage of motile sperm forms [1, 8]: 24.43 ± 3.99 % | Total number of sperm cells [1, 8]: 276.6 ± 44.6& | Glucose level in the blood of male rats, mmol/L ([1]; one week after the drug withdrawal, Treamid 0.5 mg/kg, Metformin 200 mg/kg): 7.8 ± 0.6& mmol/L | increase of the percentage of motile sperm forms ([1]; vs. high-fat diet control): did not affect | increase of the total number of sperm cells ([1]; vs. high-fat diet control): 1.8 times

CC(=O)O[C@H]1C(=O)[C@@]2(C)[C@H]([C@H](OC(=O)c3ccccc3)[C@]3(O)C[C@H](OC(=O)[C@H](O)[C@@H](NC(=O)c4ccccc4)c4ccccc4)C(C)=C1C3(C)C)[C@]1(OC(C)=O)CO[C@@H]1C[C@@H]2O [Paclitaxel, reference compound]
colony stimulating activity of conditioned media of testis cells, CFU-Sp, per 2 × 10^5 (M; SD, n = 10) [2]: 3.0; 0.53* per 2 × 10^5

CCCc1nn(C)c2c(=O)[nH]c(-c3cc(S(=O)(=O)N4CCN(C)CC4)ccc3OCC)nc12 [Sildenafil, reference compound]
A, sec (time spent in the sexual stimulus zone) [3, 9]: 143.18 ± 48.64 s | PS, s. u. (preference score) [3, 9]: 0.41 ± 0.12 s. u. | effect on sexual motivation ([3]; Treamid 5 mg/kg, Sildenafil 3 mg/kg): had no effect | A, sec (time spent in the sexual stimulus zone) [3, 10]: 166.83 ± 26.27 s | B, sec (time spent in the social stimulus zone) [3, 10]: 113.58 ± 22.60 s | PS, s. u. (preference score) [3, 10]: 0.59 ± 0.06 s. u. | effect on sexual behavior under seasonal suppression ([4]; Sildenafil 3 mg/kg): did not have a significant effect | LFM [4, 11]: 473.00 ± 137.58 s | the number of ejaculations, % [4, 11]: 0% | the number of mounts, abs. [4, 11]: 3.33 ± 1.27 abs. | LFM [4, 12]: 308.22 ± 117.73 s | the number of ejaculations, % [4, 12]: 0% | the number of mounts, abs. [4, 12]: 5.67 ± 1.76 abs. | EN (the number of ejaculations) [5, 13]: 0.00 ± 0.00 | LFM (latency until the first mount) [5, 13]: 610.08 ± 88.34 | MN (the number of mounts) [5, 13]: 1.58 ± 0.56 | EN (the number of ejaculations) [5, 14]: 0.00 ± 0.00 | MN (the number of mounts) [5, 14]: 6.27 ± 1.27⋄# | LFM (latency until the first mount) ([5]; Second test, after 14-day administration course, Treamid 5 mg/kg, Sildenafil 3 mg/kg intragastrically): 171.09 ± 78.08⋄*
